According to paper PMC11315827 (Drugs in R&D, 2024):
pIC50: −log10 of the molar value. Values joined by “and” are separate entries in the source; they are usually repeats but may differ in a detail not shown here. Equal entries are not always repeated.

Experiments:
[1] = Nonhuman primate PK study, plasma and CSF; conditions: for unbound partition coefficient Kp,uu CSF: based on plasma free fractions; for half-life / Cmax: male, cynomolgus monkey, in vivo, po; for Cmax: plasma Cmax
[2] = test system: Ramos cell expression of CD69 (BTK signaling); assay: cells; conditions: Homo sapiens, 18 h, read-out: apparent IC50 (CD69 expression)
BTK = BTK (Homo sapiens, UniProt Q06187); conditions: "reported as"; cited from earlier work
Sequence of BTK (Q06187 whole entry): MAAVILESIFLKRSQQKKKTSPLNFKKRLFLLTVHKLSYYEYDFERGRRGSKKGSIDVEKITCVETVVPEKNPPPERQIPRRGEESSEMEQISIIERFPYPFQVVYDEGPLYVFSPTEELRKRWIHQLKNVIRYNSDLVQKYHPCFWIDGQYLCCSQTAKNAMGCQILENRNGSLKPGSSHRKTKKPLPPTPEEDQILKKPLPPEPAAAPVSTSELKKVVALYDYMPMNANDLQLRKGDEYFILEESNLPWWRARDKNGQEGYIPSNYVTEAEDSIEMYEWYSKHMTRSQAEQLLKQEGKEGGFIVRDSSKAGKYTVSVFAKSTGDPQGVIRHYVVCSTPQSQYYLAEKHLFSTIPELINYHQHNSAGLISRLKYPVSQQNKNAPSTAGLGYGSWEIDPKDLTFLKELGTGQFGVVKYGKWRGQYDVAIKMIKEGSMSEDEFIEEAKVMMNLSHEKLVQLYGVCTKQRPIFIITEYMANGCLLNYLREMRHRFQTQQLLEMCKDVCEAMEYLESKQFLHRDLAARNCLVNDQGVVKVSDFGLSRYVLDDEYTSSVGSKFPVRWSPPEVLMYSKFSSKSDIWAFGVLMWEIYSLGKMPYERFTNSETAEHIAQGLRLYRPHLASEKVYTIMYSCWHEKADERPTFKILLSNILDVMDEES

TXK = molecular target: T1, TXK (Homo sapiens, UniProt P42681); assay: Kinase screening assays
T1 sequence (P42681 1-527): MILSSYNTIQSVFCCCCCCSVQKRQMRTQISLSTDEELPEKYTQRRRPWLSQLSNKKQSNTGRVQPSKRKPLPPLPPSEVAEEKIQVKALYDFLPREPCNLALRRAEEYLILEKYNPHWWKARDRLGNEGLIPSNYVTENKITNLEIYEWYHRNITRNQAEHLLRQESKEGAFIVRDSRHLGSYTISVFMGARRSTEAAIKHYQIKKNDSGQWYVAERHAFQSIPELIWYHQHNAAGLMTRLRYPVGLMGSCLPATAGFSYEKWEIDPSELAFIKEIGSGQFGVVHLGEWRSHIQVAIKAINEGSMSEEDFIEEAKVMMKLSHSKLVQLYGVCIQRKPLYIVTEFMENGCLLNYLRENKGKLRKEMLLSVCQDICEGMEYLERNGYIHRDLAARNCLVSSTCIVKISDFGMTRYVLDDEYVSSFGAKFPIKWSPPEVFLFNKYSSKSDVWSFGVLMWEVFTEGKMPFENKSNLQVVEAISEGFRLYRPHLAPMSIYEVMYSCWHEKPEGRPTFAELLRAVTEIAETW

BMX = molecular target: T2, BMX (Homo sapiens, UniProt P51813); assay: Kinase screening assays
T2 sequence (P51813 1-675): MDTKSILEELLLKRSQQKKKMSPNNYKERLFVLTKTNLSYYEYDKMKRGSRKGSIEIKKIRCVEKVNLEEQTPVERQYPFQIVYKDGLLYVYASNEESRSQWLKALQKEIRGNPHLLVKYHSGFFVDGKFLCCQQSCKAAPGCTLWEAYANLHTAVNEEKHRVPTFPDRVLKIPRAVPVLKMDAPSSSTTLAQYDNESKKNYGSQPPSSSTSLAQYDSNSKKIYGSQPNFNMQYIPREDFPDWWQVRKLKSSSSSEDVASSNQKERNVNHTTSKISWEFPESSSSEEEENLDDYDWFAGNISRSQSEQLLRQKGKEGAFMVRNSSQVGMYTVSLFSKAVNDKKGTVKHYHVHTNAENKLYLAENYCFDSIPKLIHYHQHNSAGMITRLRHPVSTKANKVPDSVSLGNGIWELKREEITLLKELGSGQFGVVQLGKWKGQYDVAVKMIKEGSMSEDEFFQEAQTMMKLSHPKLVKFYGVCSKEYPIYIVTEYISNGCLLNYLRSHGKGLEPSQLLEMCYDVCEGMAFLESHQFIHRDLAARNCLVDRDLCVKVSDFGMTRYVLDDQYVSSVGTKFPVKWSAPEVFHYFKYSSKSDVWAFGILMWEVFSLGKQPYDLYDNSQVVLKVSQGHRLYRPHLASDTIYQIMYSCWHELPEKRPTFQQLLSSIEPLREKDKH

BLK = BLK (Homo sapiens, UniProt P51451); assay: Kinase screening assays
Sequence of BLK (P51451 whole entry, species assumed): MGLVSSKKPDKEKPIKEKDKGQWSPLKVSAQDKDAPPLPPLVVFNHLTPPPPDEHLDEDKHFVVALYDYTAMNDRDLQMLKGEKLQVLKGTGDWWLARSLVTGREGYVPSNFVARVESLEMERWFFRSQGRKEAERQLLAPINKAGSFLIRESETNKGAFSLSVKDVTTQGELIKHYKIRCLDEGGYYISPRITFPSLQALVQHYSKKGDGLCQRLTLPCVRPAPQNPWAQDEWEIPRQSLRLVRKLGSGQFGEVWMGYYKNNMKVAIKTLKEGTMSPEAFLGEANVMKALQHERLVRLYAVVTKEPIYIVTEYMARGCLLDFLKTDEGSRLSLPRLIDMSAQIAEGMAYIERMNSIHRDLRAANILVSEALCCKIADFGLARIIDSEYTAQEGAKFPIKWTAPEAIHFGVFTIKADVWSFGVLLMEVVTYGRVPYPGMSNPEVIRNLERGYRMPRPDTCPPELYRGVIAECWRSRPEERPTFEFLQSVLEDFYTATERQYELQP

Compound	unbound partition coefficient Kp,uu CSF [1]	half-life ([1]; 10 mg/kg) [min]	Cmax ([1]; 10 mg/kg, oral 10 mg/kg)	terminal t1/2 for elimination ([1]; plasma, oral 10 mg/kg)	pIC50 [2]	dissociation rate (BTK) [s⁻¹]	CSF Cmax ([1]; CSF, oral 10 mg/kg) [nM]	CSF exposure (Cmax) ([1]; CSF, oral 10 mg/kg, 10 mg/kg) [ng/mL]	pIC50 (TXK)	pIC50 (BMX)	pIC50 (BLK)
C=CC(=O)N1CCC(CNc2ncnc(N)c2-c2ccc(Oc3ccccc3)cc2)CC1 [Evobrutinib]	0.131	~240	287 ng/mL and 669 nM								
C[C@H]1CN(C2COC2)CCN1c1ccc(Nc2cc(-c3ccnc(N4CCn5c(cc6c5CC(C)(C)C6)C4=O)c3CO)cn(C)c2=O)nc1 [Fenebrutinib]	0.147		553 ng/mL and 853 nM	slightly prolonged	7.70	1.52e-05					
C=CC(=O)N1CCC[C@@H](n2c(=O)n(-c3ccc(Oc4ccccc4)cc3)c3c(N)nccc32)C1 [Tolebrutinib]	0.397	~240	103 ng/mL and 226 nM				9.6	4.4	≥ 8.40	≥ 8.40	≥ 8.40
